The assay has as its target T1, human Autotaxin (ATX) (Homo sapiens, UniProt Q13822).
T1 construct: generate a full length human ENPP2 ORF with or without a 3′-6×His tag; 6xHis (C); made in house; host or cells: FreeStyle 293-F cells (transient transfection), purified from culture supernatant
In words: Human ATX enzyme inhibition assay (LPC substrate, choline oxidase/HRP/Amplex Red coupled format). Type of assay: biochemical. The settings on record: recombinant hATX 1 nM, 18:1 LPC 30 μM, fluorescence at 90 mins minus 5 mins. As to the method:
Human ATX Enzyme Inhibition Assay
To identify inhibitors of the human Autotaxin (ATX) enzyme an in-vitro biochemical profiling assay has been developed using lysophosphatidylcholine (LPC) as substrate and recombinant enzyme. ATX activity is assayed via a coupled enzyme format where choline produced from LPC hydrolysis is converted to hydrogen peroxide by choline oxidase (CO). Hydrogen peroxide is in turn used as a co-substrate by horseradish peroxidase (HRP) to oxidise Amplex Red® and generate the red-fluorescent product, Resorufin.
50 mM Tris-HCl (pH 8.0); 120 mM NaCl; 20 mM CaCl2; 5 mM KCl; 1 mM MgCl2; 0.01% Triton X-100, sterile-filtered and stored at 4° C.
50 mM Tris-HCl (pH 8.0); 150 mM NaCl
human Autotaxin (hATX): 0.97 mg/ml (9.718 μM) Molecular weight 99817. Working solution of 1.5 μM used in this assay.
100 mM 18:1 LPC dissolved in reagent dilution-buffer.
500 U/ml Choline Oxidase in reagent dilution buffer.
2540 U/ml Horseradish Peroxidase, in reagent dilution buffer (10.95 mg/ml).
20 mM Amplex Red (10-Acetyl-3,7-dihydroxy-phenoxazin) in DMSO.
Black, 384-well plate, black with clear bottom, non-treated surface.
Test compounds are received pre-diluted in DMSO as an 11-point concentration-response (0.5 mM highest concentration; 1 in 3.162 dilution). Test compounds are pre-diluted 1:1 (10 μL compound+10 μL assay buffer) in a 96-well conical bottomed plate prior to use.
ATX is diluted to 2.2 nM in assay buffer. Choline oxidase and horseradish peroxidase are diluted to 7.3 U/ml and 14.7 U/ml, respectively. 18:1 LPC and Amplex Red® are diluted to 110 μM and 183.3 μM, respectively (solution protected from light). 2.2 μL of compound pre-dilution or 50% DMSO is added to the reaction plate followed by 25 μL of ATX or assay buffer (negative control). Assay plate is mixed and incubated at room temperature for 10 mins. 15 μL of choline oxidase/horseradish peroxidase is then added. To initiate the reaction 15 μL of LPC 18:1/Amplex Red is added. Assay plate is mixed and incubated at room temperature in the dark. Fluorescence is measured at 5 mins (for background subtraction) and 90 mins.
Final Assay Concentrations:
Horse Radish Peroxidase: 4 U/ml
Fluorescence at 5-minutes is subtracted from the 90-minute end point data and normalized with respect to the positive control. IC50 values are calculated.
Results in the enzymatic ATX inhibition assay are provided for compounds of formula (I).

By IC50 is commonly meant the concentration at which inhibition is half-maximal. In the case of `N#Cc1cc(Cl)cc2c1C[C@@H](Nc1ncc3c(n1)CN(C1CCOC1)C3=O)C2` (mixture of isomers) [Example 11, (S,S) and (S,R)-6-chloro-2-((5-oxo-6-(tetrahydrofuran-3-yl)-6,7-dihydro-5H-pyrrolo[3,4-d]pyrimidin-2-yl)amino)-2,3-dihydro-1H-indene-4-carbonitrile], the half-maximal inhibitory concentration (IC50) is 6 nM. In the case of `N#Cc1cc(Cl)cc2c1C[C@@H](Nc1ncc3c(n1)CCN(C1CCOC1)C3=O)C2` (mixture of isomers) [Example 32, (S,S) and (S,R)-6-chloro-2-((5-oxo-6-(tetrahydrofuran-3-yl)-5,6,7,8-tetrahydropyrido[4,3-d]pyrimidin-2-yl)amino)-2,3-dihydro-1H-indene-4-carbonitrile], the IC50 is 4 nM. As for `O=C1c2cnc(NC3Cc4ccc(Cl)cc4C3)nc2CN1C1COC1` (stereo not shown) [Example 1, 2-((5-chloro-2,3-dihydro-1H-inden-2-yl)amino)-6-(oxetan-3-yl)-6,7-dihydro-5H-pyrrolo[3,4-d]pyrimidin-5-one], the figure is 150 nM. Consider `CC1(N2Cc3nc(NC4Cc5ccc(Cl)cc5C4)ncc3C2=O)COC1` (stereo not shown) [Example 2, 2-((5-chloro-2,3-dihydro-1H-inden-2-yl)amino)-6-(3-methyloxetan-3-yl)-6,7-dihydro-5H-pyrrolo[3,4-d]pyrimidin-5-one], for which the IC50 was 183 nM.

With `CC1(N2Cc3nc(N[C@H]4Cc5cc(Cl)cc(C#N)c5C4)ncc3C2=O)COC1` [Example 3, (S)-6-chloro-2-((6-(3-methyloxetan-3-yl)-5-oxo-6,7-dihydro-5H-pyrrolo[3,4-d]pyrimidin-2-yl)amino)-2,3-dihydro-1H-indene-4-carbonitrile], the IC50 stood at 5 nM. As for `O=C1c2cnc(NC3Cc4ccc(Cl)cc4C3)nc2CN1C1CC2(C1)CC(F)(F)C2` (stereo not shown) [Example 4, 2-((5-chloro-2,3-dihydro-1H-inden-2-yl)amino)-6-(6,6-difluorospiro[3.3]heptan-2-yl)-6,7-dihydro-5H-pyrrolo[3,4-d]pyrimidin-5-one], the IC50 is 42 nM. On to `O=C1c2cnc(NC3Cc4ccc(Cl)cc4C3)nc2CN1C1CC(F)(F)C1` (stereo not shown) [Example 5, 2-((5-chloro-2,3-dihydro-1H-inden-2-yl)amino)-6-(3,3-difluorocyclobutyl)-6,7-dihydro-5H-pyrrolo[3,4-d]pyrimidin-5-one], for which the IC50 was found to be 49 nM.

For the compound `CC1(N2Cc3nc(N[C@H]4Cc5cc(Cl)cc(C#N)c5C4)ncc3C2=O)CC(F)(F)C1` [Example 6, (S)-6-chloro-2-((6-(3,3-difluoro-1-methylcyclobutyl)-5-oxo-6,7-dihydro-5H-pyrrolo[3,4-d]pyrimidin-2-yl)amino)-2,3-dihydro-1H-indene-4-carbonitrile], the IC50 was determined as 4 nM.

`N#Cc1cc(Cl)cc2c1C[C@@H](Nc1ncc3c(n1)CN(C1CC4(C1)CC(F)(F)C4)C3=O)C2` [Example 7, (S)-6-chloro-2-((6-(6,6-difluorospiro[3.3]heptan-2-yl)-5-oxo-6,7-dihydro-5H-pyrrolo[3,4-d]pyrimidin-2-yl)amino)-2,3-dihydro-1H-indene-4-carbonitrile]: the IC50 was determined as 3 nM. As for `N#Cc1cc(Cl)cc2c1C[C@@H](Nc1ncc3c(n1)CN(C1CC(F)(F)C1)C3=O)C2` [Example 8, (S)-6-chloro-2-((6-(3,3-difluorocyclobutyl)-5-oxo-6,7-dihydro-5H-pyrrolo[3,4-d]pyrimidin-2-yl)amino)-2,3-dihydro-1H-indene-4-carbonitrile], the figure is 3 nM. Turning to `N#Cc1cc(Cl)cc2c1C[C@@H](Nc1ncc3c(n1)CN(C1CCOCC1)C3=O)C2` [Example 9, (S)-6-chloro-2-((5-oxo-6-(tetrahydro-2H-pyran-4-yl)-6,7-dihydro-5H-pyrrolo[3,4-d]pyrimidin-2-yl)amino)-2,3-dihydro-1H-indene-4-carbonitrile], the concentration for half-maximal inhibition (IC50) was found to be 5 nM. Consider `N#Cc1cc(Cl)cc2c1C[C@@H](Nc1ncc3c(n1)CN(CC(F)(F)F)C3=O)C2` [Example 10, (S)-6-chloro-2-((5-oxo-6-(2,2,2-trifluoroethyl)-6,7-dihydro-5H-pyrrolo[3,4-d]pyrimidin-2-yl)amino)-2,3-dihydro-1H-indene-4-carbonitrile], for which the IC50 amounted to 2 nM. In the case of `CC(C)N1Cc2nc(N[C@H]3Cc4cc(Cl)cc(C#N)c4C3)ncc2C1=O` [Example 12, (S)-6-chloro-2-((6-isopropyl-5-oxo-6,7-dihydro-5H-pyrrolo[3,4-d]pyrimidin-2-yl)amino)-2,3-dihydro-1H-indene-4-carbonitrile], the IC50 turned out to be 3 nM. On to `N#Cc1cc(Cl)cc2c1C[C@@H](Nc1ncc3c(n1)CN(C1CC1)C3=O)C2` [Example 13, (S)-6-chloro-2-((6-cyclopropyl-5-oxo-6,7-dihydro-5H-pyrrolo[3,4-d]pyrimidin-2-yl)amino)-2,3-dihydro-1H-indene-4-carbonitrile], for which the IC50 is 2 nM. With `N#Cc1cc(Cl)cc2c1C[C@@H](Nc1ncc3c(n1)CN(CC1COC1)C3=O)C2` [Example 14, (S)-6-chloro-2-((6-(oxetan-3-ylmethyl)-5-oxo-6,7-dihydro-5H-pyrrolo[3,4-d]pyrimidin-2-yl)amino)-2,3-dihydro-1H-indene-4-carbonitrile], the IC50 was determined as 3 nM.

For `CC1(N2Cc3nc(N[C@H]4Cc5cc(Cl)cc(C#N)c5C4)ncc3C2=O)CC1` [Example 15, (S)-6-chloro-2-((6-(1-methylcyclopropyl)-5-oxo-6,7-dihydro-5H-pyrrolo[3,4-d]pyrimidin-2-yl)amino)-2,3-dihydro-1H-indene-4-carbonitrile], the IC50 came to 2 nM. In the case of `N#Cc1cc(Cl)cc2c1C[C@@H](Nc1ncc3c(n1)CN(C1COC1)C3=O)C2` [Example 16, (S)-6-chloro-2-((6-(oxetan-3-yl)-5-oxo-6,7-dihydro-5H-pyrrolo[3,4-d]pyrimidin-2-yl)amino)-2,3-dihydro-1H-indene-4-carbonitrile], the IC50 was determined as 4 nM. As for `N#Cc1cc(Cl)cc2c1C[C@@H](Nc1ncc3c(n1)CCN(C1COC1)C3=O)C2` [Example 17, (S)-6-chloro-2-((6-(oxetan-3-yl)-5-oxo-5,6,7,8-tetrahydropyrido[4,3-d]pyrimidin-2-yl)amino)-2,3-dihydro-1H-indene-4-carbonitrile], the IC50 was determined as 3 nM. In the case of `N#Cc1cc(Cl)cc2c1C[C@@H](Nc1ncc3c(n1)CN(CC1CC1)C3=O)C2` [Example 18, (S)-6-chloro-2-((6-(cyclopropylmethyl)-5-oxo-6,7-dihydro-5H-pyrrolo[3,4-d]pyrimidin-2-yl)amino)-2,3-dihydro-1H-indene-4-carbonitrile], the IC50 was determined as 3 nM. The figure for `N#Cc1cc(Cl)cc2c1C[C@@H](Nc1ncc3c(n1)CN([C@H]1C[C@H](O)C1)C3=O)C2` [Example 19] is 5 nM; for `COCCN1Cc2nc(N[C@H]3Cc4cc(Cl)cc(C#N)c4C3)ncc2C1=O` [Example 20, (S)-6-chloro-2-((6-(2-methoxyethyl)-5-oxo-6,7-dihydro-5H-pyrrolo[3,4-d]pyrimidin-2-yl)amino)-2,3-dihydro-1H-indene-4-carbonitrile] it is 5 nM.

As to `CC(C)(O)CN1Cc2nc(N[C@H]3Cc4cc(Cl)cc(C#N)c4C3)ncc2C1=O` [Example 21, (S)-6-chloro-2-((6-(2-hydroxy-2-methylpropyl)-5-oxo-6,7-dihydro-5H-pyrrolo[3,4-d]pyrimidin-2-yl)amino)-2,3-dihydro-1H-indene-4-carbonitrile], the IC50 was determined as 5 nM. In the case of `N#Cc1cc(Cl)cc2c1C[C@@H](Nc1ncc3c(n1)CN(CCF)C3=O)C2` [Example 22, (S)-6-chloro-2-((6-(2-fluoroethyl)-5-oxo-6,7-dihydro-5H-pyrrolo[3,4-d]pyrimidin-2-yl)amino)-2,3-dihydro-1H-indene-4-carbonitrile], the IC50 was 2 nM. Take `CN1Cc2nc(N[C@H]3Cc4cc(Cl)cc(C#N)c4C3)ncc2C1=O` [Example 23, (S)-6-chloro-2-((6-methyl-5-oxo-6,7-dihydro-5H-pyrrolo[3,4-d]pyrimidin-2-yl)amino)-2,3-dihydro-1H-indene-4-carbonitrile]: the 50% inhibitory concentration (IC50) was found to be 3 nM. `N#Cc1cc(Cl)cc2c1C[C@@H](Nc1ncc3c(n1)CN(CC1(O)CC1)C3=O)C2` [Example 24, (S)-6-chloro-2-((6-((1-hydroxycyclopropyl)methyl)-5-oxo-6,7-dihydro-5H-pyrrolo[3,4-d]pyrimidin-2-yl)amino)-2,3-dihydro-1H-indene-4-carbonitrile]: the IC50 was found to be 9 nM.

(Values after patent US12649745B2, “Amino-pyrimidine cyclo-amides” (Hoffmann-La Roche Inc., priority 2020, dated 2026).)
